pIC50: −log10 of the molar value.
Tests used:
acid ceramidase (aCDase) [1] = target: T1, acid ceramidase (aCDase) (Homo sapiens, UniProt Q13510); assay: micellar aCDase assay with recombinant human enzyme, HPLC fluorescence detection of sphingosine; assay type: biochemical
T1 construct: gene ASAH1
T1 sequence (Q13510 22-142): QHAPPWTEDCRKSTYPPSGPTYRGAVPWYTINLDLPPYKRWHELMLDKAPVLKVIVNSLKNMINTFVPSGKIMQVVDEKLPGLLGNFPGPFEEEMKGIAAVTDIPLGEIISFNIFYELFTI
T1 sequence (Q13510 143-395): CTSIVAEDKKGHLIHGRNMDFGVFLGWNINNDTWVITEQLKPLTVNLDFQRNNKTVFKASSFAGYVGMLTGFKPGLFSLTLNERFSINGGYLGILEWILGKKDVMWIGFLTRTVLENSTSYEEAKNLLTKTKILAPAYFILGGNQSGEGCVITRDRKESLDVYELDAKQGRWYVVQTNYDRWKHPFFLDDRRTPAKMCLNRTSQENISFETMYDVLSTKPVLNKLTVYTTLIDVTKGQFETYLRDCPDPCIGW

acid ceramidase (aCDase) [2] = target: T1, acid ceramidase (aCDase); assay: micellar aCDase assay at […] inhibitor, recombinant human enzyme; assay type: biochemical

| SMILES | pIC50 (acid ceramidase (aCDase) [1]) | micellar aCDase assay at 2.5 μM inhibitor, recombinant human enzyme (acid ceramidase (aCDase) [2]) |
| --- | --- | --- |
| CCCCCCCCCCCCCC(=O)NCC(O)c1ccccc1 (racemic) [DP24a, N-(2-Hydroxy-2-Phenylethyl)-Tetradecanamide] | 5.89 |  |
| CCCCCCCCCCCCCC(=O)NCC(O)c1cccnc1 (racemic) [DP24c, N-(2-Hydroxy-2-(Pyridin-3-yl)-Ethyl)Tetradecanamide] |  | Although DP24c provides a basic moiety, it showed at least the same inhibition as DP24a or DP24b |
| CCCCCCCCCCCCCCNC(=O)NCC(O)c1ccccc1 (racemic) [DP25a, 1-(2-Hydroxy-2-Phenylethyl)-3-Tetradecylurea] |  | Evaluation in the aCDase assay revealed only a slightly better inhibition |
| CCCCCCCCCCCCCCNC(=O)NCC(O)c1cccnc1 (racemic) [DP25c, 1-(2-Hydroxy-2-(Pyridin-3-yl)Ethyl)-3-Tetradecylurea] |  | Evaluation in the aCDase assay revealed only a slightly better inhibition |
